Data published in ChEMBL document CHEMBL1128848, “The asymmetric synthesis of both enantiomers of eliprodil” (1995).

Tested on: Rattus norvegicus
Test: Neuroprotective activity (1 mg/kg) administered intravenously was evaluated in rat model of focal cerebral ischemia induced by permanent occlusion of the middle cerebral artery(MCA)
Format: functional

| Compound | Infarct volume [mm³] |
| --- | --- |
| OC(CN1CCC(Cc2ccc(F)cc2)CC1)c1ccc(Cl)cc1 (racemic) [ELIPRODIL] | 33.3 |
| O[C@@H](CN1CCC(Cc2ccc(F)cc2)CC1)c1ccc(Cl)cc1 | 37.7 |
| O[C@H](CN1CCC(Cc2ccc(F)cc2)CC1)c1ccc(Cl)cc1 | 58.9 |
